Assay [1] concerns the target T1, SARS-CoV-2 PLpro (nsp3 1564–1878) (Severe acute respiratory syndrome coronavirus 2, UniProt P0DTD1). As to the kind of experiment: biochemical. Details: FRET-quenched peptide (Pro3) cleavage by PLpro, 10 min pre-incubation, slope over 20 min, normalised to no-compound control. Particulars: low concentration screen, read-out: % of control remaining.
Assay [2] has as its target T1, SARS-CoV-2 PLpro (nsp3 1564–1878). As to the kind of experiment: biochemical. The arrangement: FRET-quenched peptide (Pro3) cleavage by PLpro, 10 min pre-incubation, slope over 20 min, normalised to no-compound control. The note with it: high concentration screen, read-out: % of control remaining.

Counter-ions that a name gives are not always drawn. Like-named read-outs stand apart in the source and are kept apart here. Where a SMILES comes first, the peptide text is derived from it.

`CC(C)C[C@H](NC(=O)[C@@H](O)[C@H](N)Cc1ccccc1)C(=O)O` [Bestatin]: the remaining activity at 1.25 µM in assay [1] (Well no.=8068) was 98.5%. Moreover, the remaining activity at 3.75 µM in assay [2] (Well no.=8068) was 97.8%.

Take `CN1C[C@H](C(=O)N[C@]2(C)O[C@@]3(O)[C@@H]4CCCN4C(=O)[C@H](Cc4ccccc4)N3C2=O)C[C@@H]2c3cccc4[nH]cc(c34)C[C@H]21` [Dihydroergotamine mesylate]: in assay [1] (Well no.=1701), the remaining activity at 1.25 µM came out at 98.4%. Besides, in assay [2] (Well no.=1701), the remaining activity at 3.75 µM was determined as 98.9%.

For the compound `CN1CCN(c2c(F)cc3c(=O)c(C(=O)O)cn(CCF)c3c2F)CC1` [Fleroxacin], the remaining activity at 1.25 µM in assay [1] (Well no.=2120) is 92.9%. Further, the remaining activity at 3.75 µM in assay [2] (Well no.=2120) is 96.3%.

Take `O=C(O)c1cc(N(Cc2ccccc2O)Cc2ccccc2O)ccc1O` [Lavendustin B]: the remaining activity at 1.25 µM in assay [1] (Well no.=3807) was 95.8%. Also, the remaining activity at 3.75 µM in assay [2] (Well no.=3807) came to 98%.

As to `O=C(O)c1ccc(NC(=O)[C@H](CC2CCCC2)n2cnc(C(F)(F)F)c2)nc1` [(S)-6-(3-cyclopentyl-2-(4-(trifluoromethyl)-1H-imidazol-1-yl)propanamido)nicotinic acid], in assay [1] (Well no.=6066), the remaining activity at 1.25 µM came to 83%. For the same compound, the remaining activity at 3.75 µM in assay [2] (Well no.=6066) was determined as 86.8%.

In the case of `CCCCCCCCCCCCCCCCn1cc[n+](Cc2ccccc2)c1C` [eEF-2 Kinase Inhibitor, NH125], in assay [1] (Well no.=2790), the remaining activity at 1.25 µM is 102%. In assay [2] (Well no.=2790), the remaining activity at 3.75 µM worked out at 108%.

On to `N[C@](CCCCB(O)O)(CCN1CCCCC1)C(=O)O` [Arginase inhibitor 1], for which, in assay [1] (Well no.=8697), the remaining activity at 1.25 µM was 106%. Besides, the remaining activity at 3.75 µM in assay [2] (Well no.=8697) turned out to be 105%.

Consider `C#C[C@]1(O)CC[C@H]2[C@@H]3[C@H](C)CC4=C(CCC(=O)C4)[C@H]3CC[C@@]21C` [Tibolone], for which, in assay [1] (Well no.=1954), the remaining activity at 1.25 µM came out at 97.8%. For the same compound, in assay [2] (Well no.=1954), the remaining activity at 3.75 µM was determined as 98.3%.

`NC(=O)c1ccc[n+]([O-])c1` [Nicotinamide N-oxide]: the remaining activity at 1.25 µM was 105% in assay [1] (Well no.=6247), 106% in assay [1] (Well no.=8269) and 101% in assay [1] (Well no.=8347). The remaining activity at 3.75 µM in assay [2] (Well no.=6247) was determined as 107%; in assay [2] (Well no.=8269), 102%; in assay [2] (Well no.=8347), 92.3%.

Consider `Nc1nc(Cl)nc2c1ncn2[C@@H]1O[C@H](CO)[C@@H](O)[C@H]1O` [2-Chloroadenosine], for which, in assay [1] (Well no.=274), the remaining activity at 1.25 µM turned out to be 99.4%. For the same compound, the remaining activity at 3.75 µM in assay [2] (Well no.=274) turned out to be 101%.

Take `COc1cc2ncnc(Oc3cccc(NC(=O)Nc4cc(C(C)(C)C(F)(F)F)on4)c3)c2cc1OC` [CEP-32496]: in assay [1] (Well no.=5362), the remaining activity at 1.25 µM was determined as 100%. Further, the remaining activity at 3.75 µM in assay [2] (Well no.=5362) came out at 96.8%.

As for `Cn1ccnc1` [1-Methylimidazole], in assay [1] (Well no.=939), the remaining activity at 1.25 µM is 101%. Further, the remaining activity at 3.75 µM in assay [2] (Well no.=939) is 102%.

On to `O=C(NCCCN1CCC2(CC1)OCc1ccccc12)[C@H]1CCCN1Cc1ccccc1` [BAN ORL 24], for which the remaining activity at 1.25 µM in assay [1] (Well no.=6946) was determined as 97.7%. Besides, the remaining activity at 3.75 µM in assay [2] (Well no.=6946) was 102%.

In the case of `O=C1NC(=O)/C(=C/c2ccc3nccc(-c4ccncc4)c3c2)S1` [GSK1059615], in assay [1] (Well no.=5191), the remaining activity at 1.25 µM turned out to be 104%. The remaining activity at 3.75 µM in assay [2] (Well no.=5191) came to 99.2%.

Regarding `CCCCC[C@H](O)/C=C/C=C\C/C=C\C/C=C\CCCC(=O)O` [15(S)-HETE], the remaining activity at 1.25 µM in assay [1] (Well no.=4289) was determined as 102%. For the same compound, the remaining activity at 3.75 µM in assay [2] (Well no.=4289) is 97.2%.

On to `CC(=O)Nc1ccc(OC[C@](C)(O)C(=O)Nc2ccc([N+](=O)[O-])c(C(F)(F)F)c2)cc1` [Andarine (GTX-007)], for which the remaining activity at 1.25 µM in assay [1] (Well no.=5053) stood at 102%. Moreover, in assay [2] (Well no.=5053), the remaining activity at 3.75 µM came to 104%.

`CNC(=C[N+](=O)[O-])NCCSCc1csc(CN(C)C)n1` [Nizatidine]: the results for the remaining activity at 1.25 µM in assay [1] (Well no.=4628) and in assay [1] (Well no.=7378) were 101% and 99.2%, respectively. Further, the remaining activity at 3.75 µM worked out at 99.2% in assay [2] (Well no.=4628) and 98.9% in assay [2] (Well no.=7378).

Take `CC[C@H]1OC(=O)[C@H](C)[C@@H](O[C@H]2C[C@@](C)(OC)[C@@H](O)[C@H](C)O2)[C@H](C)[C@@H](O[C@@H]2O[C@H](C)C[C@H](N(C)C)[C@H]2O)[C@](C)(O)C[C@@H](C)CN(C)[C@H](C)[C@@H](O)[C@]1(C)O` [Azithromycin]: the remaining activity at 1.25 µM in assay [1] (Well no.=2167) is 97.4%. In addition, the remaining activity at 3.75 µM in assay [2] (Well no.=2167) was 102%.

For `CCCc1c(OCCCCc2nnn[nH]2)ccc(C(C)=O)c1O` [LY-171,883], the remaining activity at 1.25 µM in assay [1] (Well no.=835) is 104%. Also, the remaining activity at 3.75 µM in assay [2] (Well no.=835) came out at 106%.

`Cn1c(=O)c2c(ncn2CC2OCCO2)n(C)c1=O` [Doxofylline]: the remaining activity at 1.25 µM was 100% in assay [1] (Well no.=2020) and 99.7% in assay [1] (Well no.=8323). The remaining activity at 3.75 µM in assay [2] (Well no.=2020) was found to be 99.1%; in assay [2] (Well no.=8323), 94.2%.

As to `CCCC(=O)Nc1ccc(OCC(O)CNC(C)C)c(C(C)=O)c1` (centres unmarked) [Acebutolol (hydrochloride)], in assay [1] (Well no.=6747), the remaining activity at 1.25 µM turned out to be 101%. For the same compound, the remaining activity at 3.75 µM in assay [2] (Well no.=6747) is 97.2%.

With `NCC(=O)NCC(=O)O` [Glycylglycine] (H-Gly-Gly-OH), in assay [1] (Well no.=6641), the remaining activity at 1.25 µM was 100%. Moreover, the remaining activity at 3.75 µM in assay [2] (Well no.=6641) is 102%.

Turning to `CCCN(CCC)C1Cc2cc(OC)c(OC)cc2C1` [U-99194A maleate], the remaining activity at 1.25 µM in assay [1] (Well no.=1192) turned out to be 100%. For the same compound, the remaining activity at 3.75 µM in assay [2] (Well no.=1192) was 99.6%.

Take `C=C1C(=O)O[C@@H]2/C=C(\C)CC/C=C(\C)CC[C@@H]12` [Costunolide]: the remaining activity at 1.25 µM in assay [1] (Well no.=5230) was found to be 101%; in assay [1] (Well no.=6634) it was 102%. Also, the values for the remaining activity at 3.75 µM in assay [2] (Well no.=5230) and in assay [2] (Well no.=6634) were 99.1% and 101%, respectively.

In the case of `O=C(O)/C(=C/c1c(C(=O)O)[nH]c2cc(Cl)cc(Cl)c12)c1ccccc1` [MDL 105,519], the remaining activity at 1.25 µM in assay [1] (Well no.=803) came to 95%. For the same compound, the remaining activity at 3.75 µM in assay [2] (Well no.=803) is 93%.

As to `Cc1nccn1CC1CCc2c(c3ccccc3n2C)C1=O` (centres unmarked) [Ondansetron], the remaining activity at 1.25 µM in assay [1] (Well no.=2104) came to 102%. The remaining activity at 3.75 µM in assay [2] (Well no.=2104) is 102%.

On to `CC(=O)C1=C(C)N(c2cccc(C(F)(F)F)c2)C(=O)N[C@@H]1c1ccc(C#N)nc1` [BAY-678], for which, in assay [1] (Well no.=7734), the remaining activity at 1.25 µM turned out to be 97.9%. The remaining activity at 3.75 µM in assay [2] (Well no.=7734) was 101%.

As to `Cc1cc2cc3c(C)cc(=O)oc3c(C)c2o1` [4,5',8-Trimethylpsoralen], the remaining activity at 1.25 µM in assay [1] (Well no.=3420) was 99.6%. Besides, the remaining activity at 3.75 µM in assay [2] (Well no.=3420) worked out at 95.9%.

On to `C[N+]1(C)[C@@H]2C[C@@H](OC(=O)C(O)(c3cccs3)c3cccs3)C[C@H]1[C@@H]1O[C@@H]12` [Tiotropium (Bromide)], for which the remaining activity at 1.25 µM in assay [1] (Well no.=7533) was 96.7%. The remaining activity at 3.75 µM in assay [2] (Well no.=7533) is 95.1%.

Values taken from article PMC8286840, “Identifying SARS-CoV-2 antiviral compounds by screening for small molecule inhibitors of Nsp3 papain-like protease” (Biochemical Journal, 2021).
